Experimental data as given in patent US20220218852A1, “NOVEL RADIOLABELLED CXCR4-TARGETING COMPOUNDS FOR DIAGNOSIS AND THERAPY” (PROVINCIAL HEALTH SERVICES AUTHORITY, priority 2019, published 2022).
Positions of bridges follow the written chain, without caps; N, C: chain ends. Non-standard residues stand in square brackets, D forms with d. Residues, ends and D or L forms follow the SMILES beside them. Groups on a side chain read outwards from the residue. *: point of attachment. DOTA = O=C(O)CN1CCN(CC(=O)O)CCN(CC(=O)*)CCN(CC(=O)O)CC1; 2Nal = N[C@@H](Cc1ccc2ccccc2c1)C(=O)O; Lys(iPr) = CC(C)NCCCC[C@H](N)C(=O)O

How the values were obtained:
Format in all cases: in vivo
[1] = Biodistribution in Daudi tumor-bearing mice; conditions: male, NOD.Cg-Rag1^tm1MomII2rg^tm1Wjl/SzJ (NRG), mouse, iv, total radioactivity, Daudi
Method: (§1) For Daudi, Z138, GRANTA519 and Jeko1 xenografts, male NOD.Cg-Rag1^tm1MomII2rg^tm1Wjl/SzJ (NRG) mice were subcutaneously inoculated on the left flank with 5×10^6 cells (100 μL; 1:1 ratio of PBS/Matrigel) and tumors were grown to a size of 200-500 mm^3. For PC-3 xenografts, male NOD.Cg-Rag1^tm1MomII2rg^tm1Wjl/SzJ (NRG) mice were subcutaneously inoculated on the left flank with 5×10^6 PC-3 cells (100 μL; 1:1 ratio of PBS/Matrigel) and tumors were grown to a size of 200-400 mm^3.
(§2) The mice were euthanized via CO2 inhalation while anesthetized with isoflurane. Tissues were harvested, washed in PBS, blotted dry, weighed, and measured on a Hidex AMG Automatic Gamma Counter.

[2] = system: Daudi Burkitt's lymphoma xenografts; assay: Biodistribution in Daudi tumor-bearing mice; conditions: Daudi
Method: as §1, §2

[3] = Biodistribution in PC3 tumor-bearing mice; conditions: male, NOD.Cg-Rag1^tm1MomII2rg^tm1Wjl/SzJ (NRG), mouse, iv, total radioactivity
Method: as §1, §2

[4] = system: PC3 prostate adenocarcinoma xenografts; assay: Biodistribution in PC3 tumor-bearing mice
Method: as §1, §2

[5] = blood, 1 h, read-out: Biodistribution Blood
[6] = blood, 1 h blocked (7.5 μg LY2510924 i.p.), read-out: Biodistribution Blood
[7] = blood, read-out: Biodistribution Blood
[8] = fat, 1 h, read-out: Biodistribution Fat
[9] = fat, 1 h blocked (7.5 μg LY2510924 i.p.), read-out: Biodistribution Fat
[10] = fat, read-out: Biodistribution Fat
[11] = 1 h blocked (7.5 μg LY2510924 i.p.)

Compound: CC(C)NCCCC[C@@H]1NC(=O)[C@H](Cc2ccc(O)cc2)NC(=O)[C@H](Cc2ccccc2)NC(=O)CC[C@H](C(=O)N[C@@H](CCCCNC(C)C)C(=O)N[C@@H](CCCCNC(=O)[C@H](CCC(=O)O)NC(=O)[C@H](CCC(=O)O)NC(=O)[C@H](CCC(=O)O)NC(=O)CN2CCN(CC(=O)O)CCN(CC(=O)O)CCN(CC(=O)O)CC2)C(N)=O)NC(=O)CNC(=O)[C@H](Cc2ccc3ccccc3c2)NC(=O)[C@@H](CCCNC(=N)N)NC1=O [[^68Ga]Ga-BL02, metal not drawn] (FY[Lys(iPr)][dR][2Nal]G[dE][Lys(iPr)]K([Glu-Glu-Glu-DOTA])-NH2; lactam N-7)
- tissue uptake at 1 h [1, 5]: 0.31 %ID/g
- tissue uptake at 1 h [1, 6]: 0.5 %ID/g
- tissue uptake at 2 h [1, 7]: 0.08 %ID/g
- tissue uptake at 1 h [1, 8]: 0.05 %ID/g
- tissue uptake at 1 h [1, 9]: 0.07 %ID/g
- tissue uptake at 2 h [1, 10]: 0.02 %ID/g
- tissue uptake at 1 h ([1]; tumor, 1 h blocked (7.5 μg LY2510924 i.p.), read-out: Biodistribution Daudi (tumor)): 0.8 %ID/g
- tissue uptake at 2 h ([1]; tumor, read-out: Biodistribution Daudi (tumor)): 7.78 %ID/g
- Biodistribution Adrenals ([2]; 1 h): 0.36 % ID/g
- Biodistribution Bone ([2]; 1 h): 0.19 % ID/g
- Biodistribution Brain ([2]; 1 h): 0.02 % ID/g
- Biodistribution Daudi (tumor) ([2]; 1 h): 8.52 % ID/g
- Biodistribution Heart ([2]; 1 h): 0.13 % ID/g
- Biodistribution Intestine ([2]; 1 h): 0.22 % ID/g
- Biodistribution Kidney ([2]; 1 h): 4.18 % ID/g
- Biodistribution Liver ([2]; 1 h): 0.59 % ID/g
- Biodistribution Lung ([2]; 1 h): 0.48 % ID/g
- Biodistribution Muscle ([2]; 1 h): 0.10 % ID/g
- Biodistribution Pancreas ([2]; 1 h): 0.18 % ID/g
- Biodistribution Spleen ([2]; 1 h): 0.53 % ID/g
- Biodistribution Stomach ([2]; 1 h): 0.07 % ID/g
- Biodistribution Testes ([2]; 1 h): 0.11 % ID/g
- Ratio Tumor: Blood ([2]; 1 h): 30.57
- Ratio Tumor: Bone ([2]; 1 h): 48.04
- Ratio Tumor: Liver ([2]; 1 h): 14.30
- Ratio Tumor: Lung ([2]; 1 h): 18.07
- Ratio Tumor: Muscle ([2]; 1 h): 80.77
- Ratio Tumor: Spleen ([2]; 1 h): 17.18
- Biodistribution Adrenals [2, 11]: 0.32 % ID/g
- Biodistribution Bone [2, 11]: 0.20 % ID/g
- Biodistribution Brain [2, 11]: 0.02 % ID/g
- Biodistribution Heart [2, 11]: 0.14 % ID/g
- Biodistribution Intestine [2, 11]: 0.31 % ID/g
- Biodistribution Kidney [2, 11]: 4.63 % ID/g
- Biodistribution Liver [2, 11]: 0.55 % ID/g
- Biodistribution Lung [2, 11]: 0.58 % ID/g
- Biodistribution Muscle [2, 11]: 0.09 % ID/g
- Biodistribution Pancreas [2, 11]: 0.12 % ID/g
- Biodistribution Spleen [2, 11]: 0.23 % ID/g
- Biodistribution Stomach [2, 11]: 0.07 % ID/g
- Biodistribution Testes [2, 11]: 0.15 % ID/g
- Ratio Tumor: Blood [2, 11]: 1.71
- Ratio Tumor: Bone [2, 11]: 4.44
- Ratio Tumor: Liver [2, 11]: 1.47
- Ratio Tumor: Lung [2, 11]: 1.43
- Ratio Tumor: Muscle [2, 11]: 9.23
- Ratio Tumor: Spleen [2, 11]: 3.57
- Biodistribution Adrenals ([2]; 2 h): 0.21 % ID/g
- Biodistribution Bone ([2]; 2 h): 0.09 % ID/g
- Biodistribution Brain ([2]; 2 h): 0.01 % ID/g
- Biodistribution Heart ([2]; 2 h): 0.05 % ID/g
- Biodistribution Intestine ([2]; 2 h): 0.12 % ID/g
- Biodistribution Kidney ([2]; 2 h): 3.40 % ID/g
- Biodistribution Liver ([2]; 2 h): 0.54 % ID/g
- Biodistribution Lung ([2]; 2 h): 0.27 % ID/g
- Biodistribution Muscle ([2]; 2 h): 0.04 % ID/g
- Biodistribution Pancreas ([2]; 2 h): 0.05 % ID/g
- Biodistribution Spleen ([2]; 2 h): 0.24 % ID/g
- Biodistribution Stomach ([2]; 2 h): 0.07 % ID/g
- Biodistribution Testes ([2]; 2 h): 0.05 % ID/g
- Ratio Tumor: Blood ([2]; 2 h): 114.6
- Ratio Tumor: Bone ([2]; 2 h): 87.81
- Ratio Tumor: Liver ([2]; 2 h): 14.47
- Ratio Tumor: Lung ([2]; 2 h): 31.68
- Ratio Tumor: Muscle ([2]; 2 h): 216.0
- Ratio Tumor: Spleen ([2]; 2 h): 36.06
- tissue uptake at 1 h ([3]; PC3 tumor, 1 h, read-out: Biodistribution PC3 (tumor)): 1.83 %ID/g
- tissue uptake at 1 h ([3]; PC3 tumor, 1 h blocked (7.5 μg LY2510924 i.p.), read-out: Biodistribution PC3 (tumor)): 0.75 %ID/g
- tissue uptake at 2 h ([3]; PC3 tumor, read-out: Biodistribution PC3 (tumor)): 1.41 %ID/g
- tissue uptake at 1 h ([3]; adrenals, 1 h, read-out: Biodistribution Adrenals): 0.18 %ID/g
- tissue uptake at 1 h ([3]; adrenals, 1 h blocked (7.5 μg LY2510924 i.p.), read-out: Biodistribution Adrenals): 0.18 %ID/g
- tissue uptake at 2 h ([3]; adrenals, read-out: Biodistribution Adrenals): 0.1 %ID/g
- tissue uptake at 1 h [3, 5]: 0.33 %ID/g
- tissue uptake at 1 h [3, 6]: 0.54 %ID/g
- tissue uptake at 2 h [3, 7]: 0.06 %ID/g
- tissue uptake at 1 h ([3]; bone, 1 h, read-out: Biodistribution Bone): 0.12 %ID/g
- tissue uptake at 1 h ([3]; bone, 1 h blocked (7.5 μg LY2510924 i.p.), read-out: Biodistribution Bone): 0.15 %ID/g
- tissue uptake at 2 h ([3]; bone, read-out: Biodistribution Bone): 0.11 %ID/g
- tissue uptake at 1 h ([3]; brain, 1 h, read-out: Biodistribution Brain): 0.01 %ID/g
- tissue uptake at 1 h ([3]; brain, 1 h blocked (7.5 μg LY2510924 i.p.), read-out: Biodistribution Brain): 0.02 %ID/g
- tissue uptake at 2 h ([3]; brain, read-out: Biodistribution Brain): 0.01 %ID/g
- tissue uptake at 1 h [3, 8]: 0.2 %ID/g
- tissue uptake at 1 h [3, 9]: 0.16 %ID/g
- tissue uptake at 2 h [3, 10]: 0.01 %ID/g
- tissue uptake at 1 h ([3]; heart, 1 h, read-out: Biodistribution Heart): 0.14 %ID/g
- tissue uptake at 1 h ([3]; heart, 1 h blocked (7.5 μg LY2510924 i.p.), read-out: Biodistribution Heart): 0.21 %ID/g
- tissue uptake at 2 h ([3]; heart, read-out: Biodistribution Heart): 0.06 %ID/g
- tissue uptake at 1 h ([3]; intestine, 1 h, read-out: Biodistribution Intestine): 0.18 %ID/g
- tissue uptake at 1 h ([3]; intestine, 1 h blocked (7.5 μg LY2510924 i.p.), read-out: Biodistribution Intestine): 0.25 %ID/g
- tissue uptake at 2 h ([3]; intestine, read-out: Biodistribution Intestine): 0.14 %ID/g
- tissue uptake at 1 h ([3]; kidney, 1 h, read-out: Biodistribution Kidney): 3.6 %ID/g
- tissue uptake at 1 h ([3]; kidney, 1 h blocked (7.5 μg LY2510924 i.p.), read-out: Biodistribution Kidney): 3.75 %ID/g
- tissue uptake at 2 h ([3]; kidney, read-out: Biodistribution Kidney): 4.67 %ID/g
- tissue uptake at 1 h ([3]; liver, 1 h, read-out: Biodistribution Liver): 0.55 %ID/g
- tissue uptake at 1 h ([3]; liver, 1 h blocked (7.5 μg LY2510924 i.p.), read-out: Biodistribution Liver): 0.5 %ID/g
- tissue uptake at 2 h ([3]; liver, read-out: Biodistribution Liver): 0.73 %ID/g
- tissue uptake at 1 h ([3]; lung, 1 h, read-out: Biodistribution Lung): 0.5 %ID/g
- tissue uptake at 1 h ([3]; lung, 1 h blocked (7.5 μg LY2510924 i.p.), read-out: Biodistribution Lung): 0.6 %ID/g
- tissue uptake at 2 h ([3]; lung, read-out: Biodistribution Lung): 0.33 %ID/g
- tissue uptake at 1 h ([3]; muscle, 1 h, read-out: Biodistribution Muscle): 0.08 %ID/g
- tissue uptake at 1 h ([3]; muscle, 1 h blocked (7.5 μg LY2510924 i.p.), read-out: Biodistribution Muscle): 0.11 %ID/g
- tissue uptake at 2 h ([3]; muscle, read-out: Biodistribution Muscle): 0.03 %ID/g
- tissue uptake at 1 h ([3]; pancreas, 1 h, read-out: Biodistribution Pancreas): 0.1 %ID/g
- tissue uptake at 1 h ([3]; pancreas, 1 h blocked (7.5 μg LY2510924 i.p.), read-out: Biodistribution Pancreas): 0.12 %ID/g
- tissue uptake at 2 h ([3]; pancreas, read-out: Biodistribution Pancreas): 0.04 %ID/g
- tissue uptake at 1 h ([3]; spleen, 1 h, read-out: Biodistribution Spleen): 0.28 %ID/g
- tissue uptake at 1 h ([3]; spleen, 1 h blocked (7.5 μg LY2510924 i.p.), read-out: Biodistribution Spleen): 0.37 %ID/g
- tissue uptake at 2 h ([3]; spleen, read-out: Biodistribution Spleen): 0.25 %ID/g
- tissue uptake at 1 h ([3]; stomach, 1 h, read-out: Biodistribution Stomach): 0.05 %ID/g
- tissue uptake at 1 h ([3]; stomach, 1 h blocked (7.5 μg LY2510924 i.p.), read-out: Biodistribution Stomach): 0.06 %ID/g
- tissue uptake at 2 h ([3]; stomach, read-out: Biodistribution Stomach): 0.06 %ID/g
- tissue uptake at 1 h ([3]; testes, 1 h, read-out: Biodistribution Testes): 0.18 %ID/g
- tissue uptake at 1 h ([3]; testes, 1 h blocked (7.5 μg LY2510924 i.p.), read-out: Biodistribution Testes): 0.35 %ID/g
- tissue uptake at 2 h ([3]; testes, read-out: Biodistribution Testes): 0.06 %ID/g
- Ratio Tumor: Blood ([4]; 1 h): 5.74
- Ratio Tumor: Bone ([4]; 1 h): 15.68
- Ratio Tumor: Liver ([4]; 1 h): 3.31
- Ratio Tumor: Lung ([4]; 1 h): 3.71
- Ratio Tumor: Muscle ([4]; 1 h): 23.74
- Ratio Tumor: Spleen ([4]; 1 h): 6.62
- Ratio Tumor: Blood [4, 11]: 1.56
- Ratio Tumor: Bone [4, 11]: 6.16
- Ratio Tumor: Liver [4, 11]: 1.62
- Ratio Tumor: Lung [4, 11]: 1.36
- Ratio Tumor: Muscle [4, 11]: 7.68
- Ratio Tumor: Spleen [4, 11]: 2.16
- Ratio Tumor: Blood ([4]; 2h): 25.33
- Ratio Tumor: Bone ([4]; 2h): 13.96
- Ratio Tumor: Liver ([4]; 2h): 1.99
- Ratio Tumor: Lung ([4]; 2h): 4.36
- Ratio Tumor: Muscle ([4]; 2h): 55.01
- Ratio Tumor: Spleen ([4]; 2h): 5.63
